# Patent publication US20080153869A1, “Kinase Inhibitors” (priority 2004, published 2008)
# Legend:
# c-KIT = c-KIT (Homo sapiens, UniProt P10721); assay: Inhibition of c-KIT, TR-FRET; format: biochemical; settings: TR-FRET assay, 100 uM ATP, 0.13 nM c-Kit
# AIK = molecular target: T1, AIK (Homo sapiens, UniProt O14965); assay: Inhibition of AIK, Direct Fluorescence Polarization (IMAP); format: biochemical; settings: FP assay, 2.5 uM ATP, 2.5 nM AIK
# T1 sequence (O14965 1-403): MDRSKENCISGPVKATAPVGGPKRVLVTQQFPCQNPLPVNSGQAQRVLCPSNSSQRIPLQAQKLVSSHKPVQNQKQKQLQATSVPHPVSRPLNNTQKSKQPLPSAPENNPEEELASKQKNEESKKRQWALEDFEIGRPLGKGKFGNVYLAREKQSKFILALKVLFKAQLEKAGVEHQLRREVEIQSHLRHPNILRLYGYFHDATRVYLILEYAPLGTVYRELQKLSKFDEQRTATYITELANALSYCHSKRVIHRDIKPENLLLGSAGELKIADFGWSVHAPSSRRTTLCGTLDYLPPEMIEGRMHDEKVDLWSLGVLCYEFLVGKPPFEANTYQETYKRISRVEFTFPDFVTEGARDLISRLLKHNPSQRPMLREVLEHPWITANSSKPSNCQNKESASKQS
# Description: The inhibitory properties of compounds relative to AIK may be determined by the Direct Fluorescence Polarization detection method (FP) using a Greiner small volume black 384-well-plate format under the following reaction conditions: 50 mM Hepes pH 7.3, 10 mM MgCl2, 10 mM NaCl, 1 mM DTT, 0.01% Brij35, 100 nM Fluorescein-LRRASLG peptide (provided by SYNPEP), 5% DMSO, 2.5 uM ATP. Detection of the reaction product is performed by addition of IMAP binding reagent (Molecular Devices). Reaction product may be determined quantitatively by FP using an Analyst HT plate reader (Molecular Devices) with an excitation wavelength at 485 nm and emission at 530 nm and using a Fluorescein 505 dichroic mirror.
# The assay reaction may be initiated as follows: 2 ul of (3×) 300 nM Fl-Peptide/7.5 uM ATP was added to each well of the plate, followed by the addition of 2 ul of (3×) inhibitor (2.5 fold serial dilutions for 11 data points for each inhibitor) containing 15% DMSO. 2 ul of (3×) 7.5 nM AIK solution may be added to initiate the reaction (final enzyme concentration was 2.5 nM for AIK). […] Fluorescence polarization readings of the resulting reaction mixtures may be measured after a 60-minute incubation at room temperature.
# IC50 values may be calculated by non-linear curve fitting of the compound concentrations and fluorescent polarization values to the standard IC50 equation.
# Sequence of c-KIT (P10721 26-976): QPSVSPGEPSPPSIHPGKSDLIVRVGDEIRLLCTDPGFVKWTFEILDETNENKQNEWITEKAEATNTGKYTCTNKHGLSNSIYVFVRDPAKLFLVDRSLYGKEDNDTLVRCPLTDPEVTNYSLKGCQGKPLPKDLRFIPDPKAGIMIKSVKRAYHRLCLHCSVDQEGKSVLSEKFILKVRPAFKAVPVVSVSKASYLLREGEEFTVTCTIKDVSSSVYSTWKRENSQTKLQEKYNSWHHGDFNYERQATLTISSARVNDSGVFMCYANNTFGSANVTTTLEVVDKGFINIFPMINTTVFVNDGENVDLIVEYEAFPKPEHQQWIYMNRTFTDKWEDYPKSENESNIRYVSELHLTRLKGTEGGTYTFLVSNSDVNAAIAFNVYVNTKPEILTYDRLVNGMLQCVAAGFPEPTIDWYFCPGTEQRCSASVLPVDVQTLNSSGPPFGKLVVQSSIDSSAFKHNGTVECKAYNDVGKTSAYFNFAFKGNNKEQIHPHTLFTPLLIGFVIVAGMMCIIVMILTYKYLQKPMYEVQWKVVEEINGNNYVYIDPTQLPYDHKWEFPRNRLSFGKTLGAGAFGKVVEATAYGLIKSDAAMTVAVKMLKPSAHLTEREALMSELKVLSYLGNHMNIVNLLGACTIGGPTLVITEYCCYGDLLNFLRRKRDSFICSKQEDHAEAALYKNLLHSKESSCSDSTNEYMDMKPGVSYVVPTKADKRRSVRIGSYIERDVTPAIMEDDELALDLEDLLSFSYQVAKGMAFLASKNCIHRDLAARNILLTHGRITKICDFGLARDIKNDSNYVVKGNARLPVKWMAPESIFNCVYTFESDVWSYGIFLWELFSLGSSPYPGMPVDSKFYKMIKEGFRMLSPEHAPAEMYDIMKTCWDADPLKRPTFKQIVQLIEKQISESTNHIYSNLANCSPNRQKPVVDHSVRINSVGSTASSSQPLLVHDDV
smiles,measurement,setting,value
"Cc1cc(-c2c(O)[nH]c3ccccc23)nc(N)n1 [Example 1, 3-(2-Amino-6-methyl-pyrimidin-4-yl)-1H-indol-2-ol]",IC50,c-KIT,< 100 µM
same,IC50,AIK,< 100 µM
